US20150307938A1, “METHOD TO IDENTIFY A NOVEL CLASS OF IMMUNOLOGIC ADJUVANTS” (Lancell, L.L.C., priority 2011, published 2015)

System: skin
Assay: Affymetrix microarray of skin, DBP-4 hr and analogs vs. untreated; gene selection by log-2 fold change, Wilcoxon, Kendall tau (Tables 8, 9)
Format: in vivo, mouse

CCCCOC(=O)c1ccccc1C(=O)OCCCC [DBP, dibutylphthalate]
No: Wilcoxon: Diablo (gene Diablo, NM_023232_at, DBP-4 hr vs. untreated) | Wilcoxon: Dmap1 (gene Dmap1, NM_023178_at, DBP-4 hr vs. untreated) | Wilcoxon: Dnajc4 (gene Dnajc4, NM_020566_at, DBP-4 hr vs. untreated) | Wilcoxon: Eid1 (gene Eid1, NM_025613_at, DBP-4 hr vs. untreated) | Wilcoxon: Eif6 (gene Eif6, NM_010579_at, DBP-4 hr vs. untreated) | Wilcoxon: Erlec1 (gene Erlec1, NM_025745_at, DBP-4 hr vs. untreated) | Wilcoxon: Fam134b (gene Fam134b, NM_025459_at, DBP-4 hr vs. untreated) | Wilcoxon: Fbxo25 (gene Fbxo25, NM_025785_at, DBP-4 hr vs. untreated) | Wilcoxon: Fgf13 (gene Fgf13, NM_010200_at, DBP-4 hr vs. untreated) | Wilcoxon: Flt1 (gene Flt1, NM_010228_at, DBP-4 hr vs. untreated) | Wilcoxon: Fmo5 (gene Fmo5, NM_010232_at, DBP-4 hr vs. untreated) | Wilcoxon: Ftsj3 (gene Ftsj3, NM_025310_at, DBP-4 hr vs. untreated) | Wilcoxon: Gcnt2 (gene Gcnt2, NM_023887_at, DBP-4 hr vs. untreated) | Wilcoxon: Gmcl1 (gene Gmcl1, NM_011818_at, DBP-4 hr vs. untreated) | Wilcoxon: Gpn3 (gene Gpn3, NM_024216_at, DBP-4 hr vs. untreated) | Wilcoxon: Gstz1 (gene Gstz1, NM_010363_at, DBP-4 hr vs. untreated) | Wilcoxon: Gtf2h2 (gene Gtf2h2, NM_022011_at, DBP-4 hr vs. untreated) | Wilcoxon: Gtf3a (gene Gtf3a, NM_025652_at, DBP-4 hr vs. untreated) | Wilcoxon: Hsdl2 (gene Hsdl2, NM_024255_at, DBP-4 hr vs. untreated) | Wilcoxon: Icos (gene Icos, NM_017480_at, DBP-4 hr vs. untreated) | Wilcoxon: Ifngr1 (gene Ifngr1, NM_010511_at, DBP-4 hr vs. untreated) | Wilcoxon: Inpp5d (gene Inpp5d, NM_010566_at, DBP-4 hr vs. untreated) | Wilcoxon: Itgax (gene Itgax, NM_021334_at, DBP-4 hr vs. untreated) | Wilcoxon: Itk (gene Itk, NM_010583_at, DBP-4 hr vs. untreated) | Wilcoxon: Krt17 (gene Krt17, NM_010663_at, DBP-4 hr vs. untreated) | Wilcoxon: Map3k14 (gene Map3k14, NM_016896_at, DBP-4 hr vs. untreated) | Wilcoxon: Mdp1 (gene Mdp1, NM_023397_at, DBP-4 hr vs. untreated) | Wilcoxon: Meis1 (gene Meis1, NM_010789_at, DBP-4 hr vs. untreated) | Wilcoxon: Mkrn3 (gene Mkrn3, NM_011746_at, DBP-4 hr vs. untreated) | Wilcoxon: Mtcp1 (gene Mtcp1, NM_010839_at, DBP-4 hr vs. untreated) | Wilcoxon: Mum1 (gene Mum1, NM_023431_at, DBP-4 hr vs. untreated) | Wilcoxon: Myd88 (gene Myd88, NM_010851_at, DBP-4 hr vs. untreated) | Wilcoxon: Nagk (gene Nagk, NM_019542_at, DBP-4 hr vs. untreated) | Wilcoxon: Ndufaf3 (gene Ndufaf3, NM_023247_at, DBP-4 hr vs. untreated) | Wilcoxon: Nek3 (gene Nek3, NM_011848_at, DBP-4 hr vs. untreated) | Wilcoxon: Nfkb2 (gene Nfkb2, NM_019408_at, DBP-4 hr vs. untreated) | Wilcoxon: Nicn1 (gene Nicn1, NM_025449_at, DBP-4 hr vs. untreated) | Wilcoxon: Nme3 (gene Nme3, NM_019730_at, DBP-4 hr vs. untreated) | Wilcoxon: Ntpcr (gene Ntpcr, NM_025636_at, DBP-4 hr vs. untreated) | Wilcoxon: Orc3 (gene Orc3, NM_015824_at, DBP-4 hr vs. untreated) | Wilcoxon: Padi1 (gene Padi1, NM_011059_at, DBP-4 hr vs. untreated) | Wilcoxon: Panx1 (gene Panx1, NM_019482_at, DBP-4 hr vs. untreated) | Wilcoxon: Pfdn2 (gene Pfdn2, NM_011070_at, DBP-4 hr vs. untreated) | Wilcoxon: Phtf1 (gene Phtf1, NM_013629_at, DBP-4 hr vs. untreated)
Yes: Kendall: Dda1 (gene Dda1, NM_025600_at, gene expression vs. output) | Kendall: Diablo (gene Diablo, NM_023232_at, gene expression vs. output) | Kendall: Dmap1 (gene Dmap1, NM_023178_at, gene expression vs. output) | Kendall: Dnajc4 (gene Dnajc4, NM_020566_at, gene expression vs. output) | Kendall: Eid1 (gene Eid1, NM_025613_at, gene expression vs. output) | Kendall: Eif6 (gene Eif6, NM_010579_at, gene expression vs. output) | Kendall: Erlec1 (gene Erlec1, NM_025745_at, gene expression vs. output) | Kendall: Fam134b (gene Fam134b, NM_025459_at, gene expression vs. output) | Kendall: Fbxo25 (gene Fbxo25, NM_025785_at, gene expression vs. output) | Kendall: Fgf13 (gene Fgf13, NM_010200_at, gene expression vs. output) | Kendall: Flt1 (gene Flt1, NM_010228_at, gene expression vs. output) | Kendall: Fmo5 (gene Fmo5, NM_010232_at, gene expression vs. output) | Kendall: Ftsj3 (gene Ftsj3, NM_025310_at, gene expression vs. output) | Kendall: Gcnt2 (gene Gcnt2, NM_023887_at, gene expression vs. output) | Kendall: Gmcl1 (gene Gmcl1, NM_011818_at, gene expression vs. output) | Kendall: Gpn3 (gene Gpn3, NM_024216_at, gene expression vs. output) | Kendall: Gstz1 (gene Gstz1, NM_010363_at, gene expression vs. output) | Kendall: Gtf2h2 (gene Gtf2h2, NM_022011_at, gene expression vs. output) | Kendall: Gtf3a (gene Gtf3a, NM_025652_at, gene expression vs. output) | Kendall: Hsdl2 (gene Hsdl2, NM_024255_at, gene expression vs. output) | Kendall: Icos (gene Icos, NM_017480_at, gene expression vs. output) | Kendall: Ifngr1 (gene Ifngr1, NM_010511_at, gene expression vs. output) | Kendall: Inpp5d (gene Inpp5d, NM_010566_at, gene expression vs. output) | Kendall: Itgax (gene Itgax, NM_021334_at, gene expression vs. output) | Kendall: Itk (gene Itk, NM_010583_at, gene expression vs. output) | Kendall: Krt17 (gene Krt17, NM_010663_at, gene expression vs. output) | Kendall: Map3k14 (gene Map3k14, NM_016896_at, gene expression vs. output) | Kendall: Mdp1 (gene Mdp1, NM_023397_at, gene expression vs. output) | Kendall: Meis1 (gene Meis1, NM_010789_at, gene expression vs. output) | Kendall: Mkrn3 (gene Mkrn3, NM_011746_at, gene expression vs. output) | Kendall: Mtcp1 (gene Mtcp1, NM_010839_at, gene expression vs. output) | Kendall: Mum1 (gene Mum1, NM_023431_at, gene expression vs. output) | Kendall: Myd88 (gene Myd88, NM_010851_at, gene expression vs. output) | Kendall: Nagk (gene Nagk, NM_019542_at, gene expression vs. output) | Kendall: Ndufaf3 (gene Ndufaf3, NM_023247_at, gene expression vs. output) | Kendall: Nek3 (gene Nek3, NM_011848_at, gene expression vs. output) | Kendall: Nfkb2 (gene Nfkb2, NM_019408_at, gene expression vs. output) | Kendall: Nicn1 (gene Nicn1, NM_025449_at, gene expression vs. output) | Kendall: Nme3 (gene Nme3, NM_019730_at, gene expression vs. output) | Kendall: Ntpcr (gene Ntpcr, NM_025636_at, gene expression vs. output) | Kendall: Orc3 (gene Orc3, NM_015824_at, gene expression vs. output) | Kendall: Padi1 (gene Padi1, NM_011059_at, gene expression vs. output) | Kendall: Panx1 (gene Panx1, NM_019482_at, gene expression vs. output) | Kendall: Pfdn2 (gene Pfdn2, NM_011070_at, gene expression vs. output) | Kendall: Phtf1 (gene Phtf1, NM_013629_at, gene expression vs. output)
